Experimental data reported in patent publication US20120053172A1 (Cooperatieve MIRzorg U.A., priority 2009, published 2012).
Like-named read-outs stand apart in the source and are kept apart here.

Tests used:
[1] = tested on: overweight patients with dyslipidemia; details: in vivo; cited from earlier work
insulin secretion = details: comparable dosages; cited from earlier work
obese men [2] = tested on: obese men
Experimental: The study was focused on detecting the early beneficial effects. […] Metformin was started in a dose of 850 mg twice daily, and was increased to 850 mg three times daily in the second week. All subjects received exercise training three times a week, and all were instructed to take a 30 minute walk after lunch and after dinner.
Dietary intake was reduced by about 30%, according to the calculation procedure described in example 1.
A total of 19 obese men with a BMI of 30-37.5 kg/m^2 participated in the study.

[3] = tested on: hyperinsulinaemic patients; details: maximal 200 mg/day in three dosages, eight weeks; placebo 5.0 kg; cited from earlier work
obese men [4] = details: one week, cited from earlier work
[5] = tested on: hyperinsulinaemic obese subjects; details: 8-week weight-loss diet; 32 women, 3 men; cited from earlier work
obese men [6] = details: cited from earlier work
[7] = tested on: obese hyperinsulinaemic men; details: high-dose, 6 months, with moderate caloric restriction and lifestyle advice; cited from earlier work
obese, healthy men = assay: First study: open, uncontrolled 6 month Diazoxide insulin suppression and weight loss study
Experimental: Fourteen obese, healthy men were studied for 6 months in an open, uncontrolled study.
All subjects received dietary advice to reduce caloric intake to meet the calculated basal requirements for ideal body weight (based on the Harrison-Bennedict equation). They were also instructed to increase walking exercise to at least 30 minutes a day. […] Subsequently, the following data were recorded every month, for a period of 6 months: body weight, abdominal circumference, supine and upright blood pressure, the results of a two-day, 8-point HGM, and adverse effects.
DZX was increased every month until a maximum of 900 mg/day was reached or until side effects occurred.

[8] = tested on: hyperinsulinaemic, non-diabetic adolescents; details: 850 mg twice daily for eight weeks; placebo 3.8%; cited from earlier work
adults = details: 2380±320 mg for six months; cited from earlier work
[9] = oral 300 mg per day in three dosages
[10] = after six months, mean dosage about 585 mg/day

CCCCCCCCCCC[C@@H](C[C@@H]1OC(=O)[C@H]1CCCCCC)OC(=O)[C@H](CC(C)C)NC=O [Orlistat]
(placebo-subtracted) net weight loss [1]: ~3 kg

CNC(=NS(=O)(=O)c1ccc(Cl)cc1)N1C[C@H](c2ccccc2)C(c2ccc(Cl)cc2)=N1 [Compound A, (4S)-3-(4-chlorophenyl)-N′-[(4-chlorophenyl)sulfonyl]-N-methyl-4-phenyl-4,5-dihydro-1-H-pyrazole-1-carboximidamide]
inhibiting insulin secretion, compared with Diazoxide (insulin secretion): more effective than Diazoxide

CC(C)CC(N(C)C)C1(c2ccc(Cl)cc2)CCC1 (stereo not drawn) [Sibutramine]
(placebo-subtracted) net weight loss [1]: about 5 kg

CC1=NS(=O)(=O)c2cc(Cl)ccc2N1 [Diazoxide, 7-chloro-3-methyl-4H-1,2,4-benzothiadiazine-1,1-dioxide]
decrease in fasting serum insulin (obese men [2]; 2 months, mean±SEM, Diazoxide 100 mg twice then three times a day, Metformin 850 mg twice then three times daily): 42.4±17.7% | serum glucose level before treatment (obese men [2]; in vivo): 5.7 ± 0.2 mmol/L | weight loss [3]: 9.8 kg | effect on plasma glucose and insulin levels (obese men [4]; oral 150 mg per day in three dosages): no significant effect | effect on plasma glucose and insulin levels (obese men [4]; oral 225 mg per day in three dosages): no significant effect | effect on fasting or postprandial glucose levels (obese men [4]; [9]): without affecting fasting or postprandial glucose levels | reduction of plasma insulin levels (obese men [4]; [9]): about 20% | effect on weight loss [5]: No effect | body weight after treatment (obese men [6]; [10]): about 103 kg | plasma level of Diazoxide (obese men [6]; [10]): about 49 mg/l | body weight at start (obese men [6]; before treatment): about 114 kg | weight reduction [7]: relevant degree of weight reduction | body weight after treatment (obese, healthy men; 6 months): 105.7 ± 3.8 kg | other adverse effects (obese, healthy men; 6 months): not observed | waist circumference after treatment (obese, healthy men; 6 months): 107.7±2.2 cm | decrease of total body fat mass (obese, healthy men; 6 months, DEXA): 9.5 ± 1.9 kg | reduction of fasting insulin levels (obese, healthy men; 6 months, mean daily dose 600±54 mg, P<0.001): 65% | change in total body fat mass (obese, healthy men; 6 months, P<0.001): −23.3% | increase of fasting glucose (obese, healthy men; 6 months, P<0.01): 0.8 ± 0.3 mmol/L | body weight at baseline (obese, healthy men; baseline): 115.1 ± 3.4 kg | waist circumference at baseline (obese, healthy men; baseline): 116.9±1.4 cm

Cc1c(C(=O)NN2CCCCC2)nn(-c2ccc(Cl)cc2Cl)c1-c1ccc(Cl)cc1 [Rimonanbant, Rimonabant]
(placebo-subtracted) net weight loss [1]: about 6 kg

CN(C)C(=N)N=C(N)N [Metformin]
weight loss [8]: about 6.5% | weight reduction (adults): 3.24%
